Reference: article PMC5119973 (Cancer Medicine, 2016)
Several values for one entry are separate records, joined by “and”; a condition that tells them apart may be missing. Equal entries are not always repeated.

What was measured:
LOK = molecular target: T1, LOK (Homo sapiens, UniProt O94804); assay: KINOMEscan active-site competitive binding assay; conditions: slash = two separate measurements
T1 construct: purchased DiscoveRx (KINOMEscan service)

ABL1-np = molecular target: T2, ABL1-np (Homo sapiens, UniProt P00519); assay: KINOMEscan active-site competitive binding assay; conditions: ABL1-np (not phosphorylated); slash = two separate measurements
T2 construct: purchased DiscoveRx (KINOMEscan service)
T2 sequence (P00519 whole entry): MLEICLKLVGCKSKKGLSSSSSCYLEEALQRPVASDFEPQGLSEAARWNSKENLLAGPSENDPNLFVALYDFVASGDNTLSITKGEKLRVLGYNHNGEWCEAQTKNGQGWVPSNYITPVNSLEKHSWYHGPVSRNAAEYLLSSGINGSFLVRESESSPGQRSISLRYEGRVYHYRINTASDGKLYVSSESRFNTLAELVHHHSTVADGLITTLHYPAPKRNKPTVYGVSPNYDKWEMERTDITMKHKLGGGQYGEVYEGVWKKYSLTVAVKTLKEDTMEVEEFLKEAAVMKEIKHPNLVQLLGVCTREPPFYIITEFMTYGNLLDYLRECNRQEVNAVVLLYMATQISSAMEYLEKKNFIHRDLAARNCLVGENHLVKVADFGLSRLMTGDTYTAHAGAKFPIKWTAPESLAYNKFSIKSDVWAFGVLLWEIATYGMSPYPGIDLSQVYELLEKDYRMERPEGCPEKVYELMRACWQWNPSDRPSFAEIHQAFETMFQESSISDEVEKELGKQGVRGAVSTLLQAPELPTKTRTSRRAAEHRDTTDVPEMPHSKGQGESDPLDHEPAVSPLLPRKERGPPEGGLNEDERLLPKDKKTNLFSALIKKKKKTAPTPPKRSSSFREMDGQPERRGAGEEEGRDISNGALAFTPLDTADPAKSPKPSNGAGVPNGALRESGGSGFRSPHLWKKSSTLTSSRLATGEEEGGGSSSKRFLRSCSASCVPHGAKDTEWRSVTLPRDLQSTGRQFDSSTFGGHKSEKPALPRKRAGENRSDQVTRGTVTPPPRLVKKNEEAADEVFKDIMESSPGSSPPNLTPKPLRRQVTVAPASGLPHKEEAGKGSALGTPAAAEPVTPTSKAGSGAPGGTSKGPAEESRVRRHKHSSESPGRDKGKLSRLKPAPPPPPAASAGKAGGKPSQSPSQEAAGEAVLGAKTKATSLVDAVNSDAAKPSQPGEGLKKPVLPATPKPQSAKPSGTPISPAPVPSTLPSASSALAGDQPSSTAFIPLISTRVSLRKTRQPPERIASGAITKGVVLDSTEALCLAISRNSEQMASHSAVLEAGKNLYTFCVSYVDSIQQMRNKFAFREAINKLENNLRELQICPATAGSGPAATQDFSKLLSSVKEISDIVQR

CSF1R = molecular target: T3, CSF1R (Homo sapiens, UniProt P07333); assay: KINOMEscan active-site competitive binding assay; conditions: slash = two separate measurements
T3 construct: purchased DiscoveRx (KINOMEscan service)
T3 sequence (P07333 20-972): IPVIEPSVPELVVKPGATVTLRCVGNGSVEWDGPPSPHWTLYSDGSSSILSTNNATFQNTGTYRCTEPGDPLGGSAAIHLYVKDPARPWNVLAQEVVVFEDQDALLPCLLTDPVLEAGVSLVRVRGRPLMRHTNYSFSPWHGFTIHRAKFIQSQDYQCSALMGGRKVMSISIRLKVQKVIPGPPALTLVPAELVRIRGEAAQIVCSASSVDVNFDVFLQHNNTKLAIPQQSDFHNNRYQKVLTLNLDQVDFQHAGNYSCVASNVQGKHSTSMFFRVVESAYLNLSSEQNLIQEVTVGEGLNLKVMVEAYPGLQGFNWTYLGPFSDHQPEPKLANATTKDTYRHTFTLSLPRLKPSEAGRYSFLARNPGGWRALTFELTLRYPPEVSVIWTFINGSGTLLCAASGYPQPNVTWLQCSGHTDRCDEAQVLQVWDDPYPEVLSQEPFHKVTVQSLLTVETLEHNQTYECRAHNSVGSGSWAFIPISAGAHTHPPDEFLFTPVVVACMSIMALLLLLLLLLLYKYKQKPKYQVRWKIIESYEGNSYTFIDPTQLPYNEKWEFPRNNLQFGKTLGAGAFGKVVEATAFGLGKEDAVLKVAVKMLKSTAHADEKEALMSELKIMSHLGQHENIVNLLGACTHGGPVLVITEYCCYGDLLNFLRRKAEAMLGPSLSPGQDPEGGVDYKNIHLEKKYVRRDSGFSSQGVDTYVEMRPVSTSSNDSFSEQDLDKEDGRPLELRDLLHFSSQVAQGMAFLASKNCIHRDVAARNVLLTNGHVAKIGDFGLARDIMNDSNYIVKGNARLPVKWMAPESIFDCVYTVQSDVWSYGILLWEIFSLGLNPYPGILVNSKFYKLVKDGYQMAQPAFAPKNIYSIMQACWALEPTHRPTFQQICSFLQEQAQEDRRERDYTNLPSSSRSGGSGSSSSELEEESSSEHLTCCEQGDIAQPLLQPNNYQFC

[1] = Plasma protein binding in vitro (Transil), human plasma; type: in vitro ADME; conditions: for Proportion of protein‐bound drug / Unbound fraction, fold lower than that of regorafenib / Major plasma protein to which the compound was bound: human plasma; for Major plasma protein to which the compound was bound: data not shown; for Unbound fraction, fold lower in human than in murine plasma: human versus murine plasma
Protocol: A radioactivity analysis was performed by liquid scintillation counting. […] All compounds were tested for stability at the incubation conditions used.

HIPK4 = molecular target: T4, HIPK4 (Homo sapiens, UniProt Q8NE63); assay: KINOMEscan active-site competitive binding assay; conditions: slash = two separate measurements
T4 construct: purchased DiscoveRx (KINOMEscan service)
T4 sequence (Q8NE63 1-616): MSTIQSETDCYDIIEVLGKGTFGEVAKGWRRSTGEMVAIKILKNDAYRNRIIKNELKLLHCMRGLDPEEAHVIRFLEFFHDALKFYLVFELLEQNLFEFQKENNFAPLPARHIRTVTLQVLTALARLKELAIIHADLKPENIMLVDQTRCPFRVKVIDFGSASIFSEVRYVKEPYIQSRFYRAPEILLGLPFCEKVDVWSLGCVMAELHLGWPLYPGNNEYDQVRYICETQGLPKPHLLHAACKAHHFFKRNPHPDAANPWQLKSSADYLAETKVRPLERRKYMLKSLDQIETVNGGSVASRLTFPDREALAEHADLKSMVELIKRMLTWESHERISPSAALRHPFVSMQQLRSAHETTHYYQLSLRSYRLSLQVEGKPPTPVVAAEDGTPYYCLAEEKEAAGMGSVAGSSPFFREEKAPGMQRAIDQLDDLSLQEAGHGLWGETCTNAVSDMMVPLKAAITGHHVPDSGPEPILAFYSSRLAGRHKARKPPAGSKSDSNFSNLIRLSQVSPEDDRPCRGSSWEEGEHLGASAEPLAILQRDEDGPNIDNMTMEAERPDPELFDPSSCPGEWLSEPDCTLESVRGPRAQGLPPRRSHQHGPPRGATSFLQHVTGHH

JNK2 = molecular target: T5, JNK2 (Homo sapiens, UniProt P45984); assay: KINOMEscan active-site competitive binding assay; conditions: slash = duplicate values
T5 construct: purchased DiscoveRx (KINOMEscan service)

CDK8 = molecular target: T6, CDK8 (Homo sapiens, UniProt P49336); assay: KINOMEscan active-site competitive binding assay; conditions: slash = two separate measurements
T6 construct: purchased DiscoveRx (KINOMEscan service)
T6 sequence (P49336 whole entry): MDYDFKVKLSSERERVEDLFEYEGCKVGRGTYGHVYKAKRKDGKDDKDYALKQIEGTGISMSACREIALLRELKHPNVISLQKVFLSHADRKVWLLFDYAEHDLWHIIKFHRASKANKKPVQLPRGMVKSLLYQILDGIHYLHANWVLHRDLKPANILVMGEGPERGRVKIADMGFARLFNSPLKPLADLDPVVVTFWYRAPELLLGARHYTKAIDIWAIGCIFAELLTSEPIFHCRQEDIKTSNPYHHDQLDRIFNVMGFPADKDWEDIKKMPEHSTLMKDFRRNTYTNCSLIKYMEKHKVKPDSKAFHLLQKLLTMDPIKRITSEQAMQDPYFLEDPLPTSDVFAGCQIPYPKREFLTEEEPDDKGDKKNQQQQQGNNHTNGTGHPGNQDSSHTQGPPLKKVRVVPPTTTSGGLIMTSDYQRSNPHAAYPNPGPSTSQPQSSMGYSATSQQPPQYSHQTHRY

[2] = system: lung tumor cell lines expressing wt or mutant DDR2; assay: Preliminary in vitro proliferation, lung tumor cell lines expressing wt or mutant DDR2; type: cell-based; conditions: unpubl. data
EPHA8 = molecular target: T7, EPHA8 (Homo sapiens, UniProt P29322); assay: KINOMEscan active-site competitive binding assay; conditions: slash = two separate measurements
T7 construct: purchased DiscoveRx (KINOMEscan service)
T7 sequence (P29322 28-1005): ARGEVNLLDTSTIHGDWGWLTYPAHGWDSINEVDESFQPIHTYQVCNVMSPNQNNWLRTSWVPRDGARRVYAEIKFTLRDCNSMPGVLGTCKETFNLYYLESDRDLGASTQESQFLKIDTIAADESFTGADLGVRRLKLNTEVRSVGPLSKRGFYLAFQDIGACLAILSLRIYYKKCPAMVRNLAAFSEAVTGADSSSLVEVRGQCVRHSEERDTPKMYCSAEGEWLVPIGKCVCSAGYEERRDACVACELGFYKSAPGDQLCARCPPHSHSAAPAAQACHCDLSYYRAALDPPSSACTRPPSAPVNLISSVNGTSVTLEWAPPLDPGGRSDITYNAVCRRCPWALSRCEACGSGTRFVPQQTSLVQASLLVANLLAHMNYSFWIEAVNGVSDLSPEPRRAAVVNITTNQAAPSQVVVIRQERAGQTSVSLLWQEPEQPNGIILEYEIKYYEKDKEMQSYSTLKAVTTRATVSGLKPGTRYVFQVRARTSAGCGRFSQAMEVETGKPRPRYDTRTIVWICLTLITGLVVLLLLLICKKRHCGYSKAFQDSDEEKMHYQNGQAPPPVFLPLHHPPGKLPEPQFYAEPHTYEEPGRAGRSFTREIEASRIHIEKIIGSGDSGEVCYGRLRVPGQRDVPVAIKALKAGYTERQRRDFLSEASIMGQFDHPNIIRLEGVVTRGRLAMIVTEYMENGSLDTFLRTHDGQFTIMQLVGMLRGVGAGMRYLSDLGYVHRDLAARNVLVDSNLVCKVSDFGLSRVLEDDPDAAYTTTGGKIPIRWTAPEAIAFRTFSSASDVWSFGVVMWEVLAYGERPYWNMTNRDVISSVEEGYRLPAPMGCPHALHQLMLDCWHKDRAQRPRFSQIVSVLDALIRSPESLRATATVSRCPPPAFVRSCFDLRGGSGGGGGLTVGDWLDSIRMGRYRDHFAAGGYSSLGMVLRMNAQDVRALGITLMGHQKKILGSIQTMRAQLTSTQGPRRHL

MAP4K4 = molecular target: T8, MAP4K4 (Homo sapiens, UniProt O95819); assay: KINOMEscan active-site competitive binding assay; conditions: slash = two separate measurements
T8 construct: purchased DiscoveRx (KINOMEscan service)
T8 sequence (O95819 whole entry): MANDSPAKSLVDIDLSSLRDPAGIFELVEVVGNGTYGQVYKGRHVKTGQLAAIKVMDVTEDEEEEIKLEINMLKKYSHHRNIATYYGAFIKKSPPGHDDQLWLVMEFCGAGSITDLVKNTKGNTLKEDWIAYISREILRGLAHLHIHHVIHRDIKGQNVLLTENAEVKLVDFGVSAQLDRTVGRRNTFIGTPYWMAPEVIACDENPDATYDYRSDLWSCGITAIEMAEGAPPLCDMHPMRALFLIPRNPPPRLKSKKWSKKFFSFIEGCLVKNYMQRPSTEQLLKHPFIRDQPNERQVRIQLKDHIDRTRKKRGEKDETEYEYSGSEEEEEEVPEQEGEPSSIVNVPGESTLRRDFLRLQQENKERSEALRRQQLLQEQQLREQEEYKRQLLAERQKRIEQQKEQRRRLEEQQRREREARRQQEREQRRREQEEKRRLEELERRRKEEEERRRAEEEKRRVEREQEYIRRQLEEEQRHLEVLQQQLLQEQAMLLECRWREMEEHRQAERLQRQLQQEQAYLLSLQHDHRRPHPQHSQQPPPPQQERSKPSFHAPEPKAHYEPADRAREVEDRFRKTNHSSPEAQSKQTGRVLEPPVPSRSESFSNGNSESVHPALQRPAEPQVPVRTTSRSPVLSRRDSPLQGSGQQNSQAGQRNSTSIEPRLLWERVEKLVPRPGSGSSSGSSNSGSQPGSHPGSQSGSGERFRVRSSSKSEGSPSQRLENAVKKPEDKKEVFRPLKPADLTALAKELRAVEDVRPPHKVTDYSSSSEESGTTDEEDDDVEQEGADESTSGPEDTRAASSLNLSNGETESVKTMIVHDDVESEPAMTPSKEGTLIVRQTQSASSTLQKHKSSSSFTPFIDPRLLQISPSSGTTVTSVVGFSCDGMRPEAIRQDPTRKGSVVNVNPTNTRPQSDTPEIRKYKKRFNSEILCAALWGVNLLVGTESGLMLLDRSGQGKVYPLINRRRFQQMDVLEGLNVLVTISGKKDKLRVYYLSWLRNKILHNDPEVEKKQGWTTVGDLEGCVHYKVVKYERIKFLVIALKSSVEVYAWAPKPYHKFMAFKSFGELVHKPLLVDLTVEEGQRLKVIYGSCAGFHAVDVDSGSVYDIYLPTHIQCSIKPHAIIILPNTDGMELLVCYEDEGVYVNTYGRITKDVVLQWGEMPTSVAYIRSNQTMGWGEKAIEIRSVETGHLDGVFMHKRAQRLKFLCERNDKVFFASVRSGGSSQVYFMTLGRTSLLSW

MEK5 = molecular target: T9, MEK5 (Homo sapiens, UniProt Q13163); assay: KINOMEscan active-site competitive binding assay
T9 construct: purchased DiscoveRx (KINOMEscan service)
T9 sequence (Q13163 1-448): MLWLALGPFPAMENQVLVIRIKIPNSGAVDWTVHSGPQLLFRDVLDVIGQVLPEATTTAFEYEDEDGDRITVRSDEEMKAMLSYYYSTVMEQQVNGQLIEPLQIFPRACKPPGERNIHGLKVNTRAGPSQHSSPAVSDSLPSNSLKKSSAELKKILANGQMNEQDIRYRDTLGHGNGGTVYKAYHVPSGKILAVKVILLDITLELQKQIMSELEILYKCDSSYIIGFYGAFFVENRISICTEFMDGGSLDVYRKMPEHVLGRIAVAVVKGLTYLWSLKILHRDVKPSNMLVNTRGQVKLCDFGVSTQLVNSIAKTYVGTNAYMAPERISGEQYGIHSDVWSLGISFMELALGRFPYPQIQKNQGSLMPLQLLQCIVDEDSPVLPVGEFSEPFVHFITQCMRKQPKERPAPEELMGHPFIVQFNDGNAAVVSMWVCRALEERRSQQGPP

[3] = human, male, plasma, arithmetic mean ± SD

T1 sequence (O94804 whole entry): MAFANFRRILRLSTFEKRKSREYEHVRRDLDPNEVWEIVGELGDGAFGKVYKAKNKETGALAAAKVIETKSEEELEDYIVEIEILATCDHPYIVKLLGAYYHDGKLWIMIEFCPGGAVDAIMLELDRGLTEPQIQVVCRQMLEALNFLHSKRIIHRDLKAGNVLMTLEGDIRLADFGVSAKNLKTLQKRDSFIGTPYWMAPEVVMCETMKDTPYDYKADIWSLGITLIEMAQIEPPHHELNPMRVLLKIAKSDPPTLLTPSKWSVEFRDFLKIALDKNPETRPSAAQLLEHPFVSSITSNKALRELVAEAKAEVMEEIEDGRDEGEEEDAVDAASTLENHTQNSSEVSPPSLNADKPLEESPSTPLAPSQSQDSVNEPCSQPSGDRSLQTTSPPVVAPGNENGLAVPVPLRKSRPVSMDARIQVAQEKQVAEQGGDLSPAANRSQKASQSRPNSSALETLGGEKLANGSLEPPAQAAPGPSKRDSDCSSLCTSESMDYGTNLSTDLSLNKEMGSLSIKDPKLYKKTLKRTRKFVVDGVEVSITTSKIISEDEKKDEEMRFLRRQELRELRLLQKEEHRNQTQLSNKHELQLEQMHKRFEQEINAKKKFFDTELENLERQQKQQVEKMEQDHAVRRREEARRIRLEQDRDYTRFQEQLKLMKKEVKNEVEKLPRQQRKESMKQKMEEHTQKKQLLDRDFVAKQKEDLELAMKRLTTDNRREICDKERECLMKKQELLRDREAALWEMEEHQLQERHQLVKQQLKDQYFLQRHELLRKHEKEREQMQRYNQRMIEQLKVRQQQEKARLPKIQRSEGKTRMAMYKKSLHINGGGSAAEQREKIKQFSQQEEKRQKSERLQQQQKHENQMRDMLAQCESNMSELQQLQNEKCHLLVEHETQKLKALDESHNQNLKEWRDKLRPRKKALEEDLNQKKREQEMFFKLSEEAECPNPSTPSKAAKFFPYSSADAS

CNC(=O)c1cc(Oc2ccc(NC(=O)Nc3ccc(Cl)c(C(F)(F)F)c3)c(F)c2)cc[n+]1[O-] [M‐2]
Kd (LOK): 9.3 nM | Kd (ABL1-np): 23 nM | Kd (CSF1R): 21 nM | Proportion of protein‐bound drug [1]: more than 99% | Unbound fraction, fold lower than that of regorafenib [1]: about 2.5 fold | Major plasma protein to which the compound was bound [1]: albumin | Unbound fraction, fold lower in human than in murine plasma [1]: ~ 5 fold | Unbound fraction (%) [1, 3]: 0.188 ± 0.004% | Kd (HIPK4): 15 nM | Kd (JNK2): 67 nM and 44 nM | Kd (CDK8): 43 nM | Inhibition of proliferation [2]: only moderate inhibition | Kd (EPHA8): 61 nM | Kd (MAP4K4): 42 nM | Kd (MEK5): 10 nM

NC(=O)c1cc(Oc2ccc(NC(=O)Nc3ccc(Cl)c(C(F)(F)F)c3)c(F)c2)cc[n+]1[O-] [M‐5]
Kd (LOK): 11 nM | Kd (ABL1-np): 20 nM | Kd (CSF1R): 13 nM | Proportion of protein‐bound drug [1]: more than 99% | Unbound fraction, fold lower than that of regorafenib [1]: approximately 10 fold | Major plasma protein to which the compound was bound [1]: albumin | Unbound fraction, fold lower in human than in murine plasma [1]: ~ 8 fold | Unbound fraction (%) [1, 3]: 0.053 ± 0.013% | Kd (HIPK4): 26 nM | Kd (JNK2): 670 nM | Kd (CDK8): 140 nM | Inhibition of proliferation [2]: only moderate inhibition | Kd (EPHA8): 73 nM | Kd (MAP4K4): 89 nM | Kd (MEK5): 10 nM

CNC(=O)c1cc(Oc2ccc(NC(=O)Nc3ccc(Cl)c(C(F)(F)F)c3)c(F)c2)ccn1 [Regorafenib, reference compound]
Kd (LOK): 15 nM and 10 nM | Kd (ABL1-np): 32 nM and 16 nM | Kd (CSF1R): 43 nM and 10 nM | Proportion of protein‐bound drug [1]: more than 99% | Major plasma protein to which the compound was bound [1]: albumin | Unbound fraction (%) [1, 3]: 0.488 ± 0.091% | fraction unbound ([1]; male, human, plasma, arithmetic mean ± SD): ~0.005 | Kd (HIPK4): 6.9 nM and 4.5 nM | Kd (JNK2): 1400 nM and 1900 nM | Kd (CDK8): 100 nM and 73 nM | Inhibition of proliferation [2]: only moderate inhibition | Kd (EPHA8): 140 nM and 130 nM | Kd (MAP4K4): 450 nM and 400 nM | Kd (MEK5): 40 nM
